Consider 40 compounds from patent US7056924B2, “Substituted heterocyclic compounds” (CV Therapeutics, Inc., priority 2002, dated 2006).

This assay has as its system Palmitoyl CoA oxidation in rat heart mitochondria. Description: Mitochondrial assay: Palmitoyl CoA oxidation. The class given is biochemical. To be noted: 16 microM 1-C14 palmitoyl CoA, 15 min at 30° C., read-out: Effect of Compounds of the Invention on Palmitoyl CoA Oxidation (IC50). On the procedure:
Rat heart mitochondria were isolated by the method of Nedergard and Cannon (Methods in Enzymol. 55, 3, 1979).
Palmitoyl CoA oxidation—The Palmitoyl CoA oxidation was carried out in a total volume of 100 micro liters containing the following agents: 110 mM KCl, 33 mM Tris buffer at pH 8, 2 mM KPi, 2 mM MgCl2, 0.1 mM EDTA, 14.7 microM defatted BSA, 0.5 mM malic acid, 13 mM carnitine, 1 mM ADP, 52 micrograms of mitochondrial protein, and 16 microM 1-C14 palmitoyl CoA (Sp. Activity 60 mCi/mmole; 20 microCi/ml, using 5 microliters per assay). The compounds of this invention were added in a DMSO solution at the following concentrations: 100 micro molar, 30 micro molar, and 3 micro molar. In each assay, a DMSO control was used. After 15 min at 30° C., the enzymatic reaction was centrifuged (20,000 g for 1 min), and 70 microliters of the supernatant was added to an activated reverse phase silicic acid column (approximately 0.5 ml of silicic acid). The column was eluted with 2 ml of water, and 0.5 ml of the eluent was used for scintillation counting to determine the amount of C^14 trapped as C^14 bicarbonate ion.
As usually defined, the IC50 is the concentration at which inhibition is half-maximal. Consider “(2R)-3-{(2S)-2-methyl-4-[(3-phenylisoxazol-5-yl)methyl]piperazinyl}-1-(2-methylbenzothiazol-5-yloxy)propan-2-ol”, for which the concentration for half-maximal inhibition (IC50) is 410 nM.
With “(2R)-3-(2-methylbenzothiazol-5-yloxy)-1-{4-[(2-phenyl(1,3-thiazol-4-yl))methyl]piperazinyl}propan-2-ol”, the IC50 turned out to be 2700 nM.
In the case of “(2R)-3-{(2S)-2-methyl-4-[(5-phenylbenzoxazol-2-yl)methyl]piperazinyl}-1-(2-methylbenzothiazol-5-yloxy)propan-2-ol”, the IC50 worked out at 2100 nM.
Take “(2R)-3-((2S)-4-{[5-(3,4-dichlorophenyl)isoxazol-3-yl]methyl}-2-methylpiperazinyl)-1-(2-methylbenzothiazol-5-yloxy)propan-2-ol”: the IC50 was 730 nM.
Consider “(2R)-3-(2-methylbenzothiazol-5-yloxy)-1-(4-{[5-(2-methylphenyl)(1,2,4-oxadiazol-3-yl)]methyl}piperazinyl)propan-2-ol”, for which the half-maximal inhibitory concentration (IC50) is 1170 nM.
The same measure for “(2R)-3-(2-methylbenzothiazol-5-yloxy)-1-(4-{[5-(4-phenylphenyl)(1,3,4-oxadiazol-2-yl)]methyl}piperazinyl)propan-2-ol”: 990 nM.
The same measure for `Cc1nc2cc(OC[C@H](O)CN3CCN(Cc4cc(-c5ccc(Cl)cc5)on4)C[C@@H]3C)ccc2s1` [(2R)-3-[(2S)-2-methyl-4-({5-[4-chlorophenyl]isoxazol-3-yl}methyl)piperazinyl]-1-(2-methylbenzothiazol-5-yloxy)propan-2-ol]: 140 nM.
The same measure for “(2R)-1-(4-{[3-(2,4-dichlorophenyl)(1,2,4-oxadiazol-5-yl)]methyl}piperazinyl)-3-(2-methylbenzothiazol-5-yloxy)propan-2-ol”: 1140 nM.
For the compound “(2R)-3-(2-methylbenzothiazol-5-yloxy)-1-{4-[(5-phenyl(1,3,4-oxadiazol-2-yl))methyl]piperazinyl}propan-2-ol”, the IC50 is 1100 nM.
For the compound “(2R)-1-((2S)-4-{[5-(4-chlorophenyl)(1,3,4-oxadiazol-2-yl)]methyl}-2-methylpiperazinyl)-3-(2-methylbenzothiazol-5-yloxy)propan-2-ol”, the IC50 amounted to 690 nM.
For the compound “(2R)-3-[(2S)-2-methyl-4-({2-[4-(trifluoromethyl)phenyl](1,3-oxazol-5-yl)}methyl)piperazinyl]-1-(2-methylbenzothiazol-5-yloxy)propan-2-ol”, the IC50 was found to be 370 nM.
Regarding `Cc1nc2cc(OC[C@H](O)CN3CCN(Cc4nc5cc(-c6ccccc6)ccc5o4)CC3)ccc2s1` [(2R)-3-(2-methylbenzothiazol-5-yloxy)-1-{4-[(5-phenylbenzoxazol-2-yl)methyl]piperazinyl}propan-2-ol], the IC50 was 3600 nM.
As for “(2R)-3-((3S)-3-methyl-4-{[5-(4-phenylphenyl)isoxazol-3-yl]methyl}piperazinyl)-1-(2-methylbenzothiazol-5-yloxy)propan-2-ol”, the IC50 amounted to 970 nM.
For the compound “(2R)-1-{(2S)-2-methyl-4-[(5-(2-naphthyl)(1,3,4-oxadiazol-2-yl))methyl]piperazinyl}-3-(2-methylbenzothiazol-5-yloxy)propan-2-ol”, the IC50 amounted to 1150 nM.
Consider “(2R)-3-{(3S)-3-methyl-4-[(5-(2-chlorophenyl)isoxazol-3-yl)methyl]piperazinyl}-1-(2-methylbenzothiazol-5-yloxy)propan-2-ol”, for which the IC50 was found to be 60 nM.
As for “(2R)-3-((2S)-4-{[5-(2-chlorophenyl)(1,3,4-oxadiazol-2-yl)]methyl}-2-methylpiperazinyl)-1-(2-methylbenzothiazol-5-yloxy)propan-2-ol”, the IC50 was determined as 340 nM.
Turning to “(2R)-3-{(3S)-3-methyl-4-[(3-(4-methoxyphenyl)isoxazol-5-yl)methyl]piperazinyl}-1-(2-methylbenzothiazol-5-yloxy)propan-2-ol”, the IC50 was 740 nM.
On to “(2R)-1-(4-{[5-(4-chlorophenyl)(1,3,4-oxadiazol-2-yl)]methyl}piperazinyl)-3-(2-methylbenzothiazol-5-yloxy)propan-2-ol”, for which the IC50 was 8500 nM.
With `Cc1nc2cc(OC[C@H](O)CN3CCN(Cc4nc(-c5ccc(Cl)cc5Cl)no4)C[C@@H]3C)ccc2s1` [(2R)-1-((2S)-4-{[3-(2,4-dichlorophenyl)(1,2,4-oxadiazol-5-yl)]methyl}-2-methylpiperazinyl)-3-(2-methylbenzothiazol-5-yloxy)propan-2-ol], the IC50 was determined as 100 nM.
Turning to “(2R)-1-[(3S)-3-methyl-4-({2-[4-(trifluoromethyl)phenyl](1,3-thiazol-4-yl)}methyl)piperazinyl]-3-(2-methylbenzothiazol-5-yloxy)propan-2-ol”, the IC50 came out at 210 nM.
For “(2R)-3-((2S)-4-{[5-(4-methoxyphenyl)(1,3,4-oxadiazol-2-yl)]methyl}-2-methylpiperazinyl)-1-(2-methylbenzothiazol-5-yloxy)propan-2-ol”, the IC50 is 1240 nM.
Consider “(2R)-1-((3S)-4-{[5-(2,4-dichlorophenyl)(1,2,4-oxadiazol-3-yl)]methyl}-3-methylpiperazinyl)-3-(2-methylbenzothiazol-5-yloxy)propan-2-ol”, for which the IC50 is 680 nM.
Turning to “(2R)-1-[4-({5-[4-(tert-butyl)phenyl](1,3,4-oxadiazol-2-yl)}methyl)piperazinyl]-3-(2-methylbenzothiazol-5-yloxy)propan-2-ol”, the IC50 came out at 1100 nM.
With “(2R)-1-(4-{[3-(2-fluorophenyl)(1,2,4-oxadiazol-5-yl)]methyl}piperazinyl)-3-(2-methylbenzothiazol-5-yloxy)propan-2-ol”, the IC50 is 5700 nM.
As for “(2R)-1-(4-{[5-(2-chlorophenyl)(1,2,4-oxadiazol-3-yl)]methyl}piperazinyl)-3-(2-methylbenzothiazol-5-yloxy)propan-2-ol”, the half-maximal inhibitory concentration (IC50) was 1140 nM.
The same measure for “(2R)-1-[(2S)-4-({5-[4-(dimethylamino)phenyl](1,3,4-oxadiazol-2-yl)}methyl)-2-methylpiperazinyl]-3-(2-methylbenzothiazol-5-yloxy)propan-2-ol”: 1480 nM; for “(2R)-1-[(2S)-2-methyl-4-({5-[3-(trifluoromethyl)phenyl](1,3,4-oxadiazol-2-yl)}methyl)piperazinyl]-3-(2-methylbenzothiazol-5-yloxy)propan-2-ol”: 1050 nM.
As to “(2R)-1-(4-{[5-(4-methoxyphenyl)(1,3,4-oxadiazol-2-yl)]methyl}piperazinyl)-3-(2-methylbenzothiazol-5-yloxy)propan-2-ol”, the IC50 was determined as 8900 nM.
The same measure for “(2R)-3-(2-methylbenzothiazol-5-yloxy)-1-[4-({5-[3-(trifluoromethyl)phenyl](1,3,4-oxadiazol-2-yl)}methyl)piperazinyl]propan-2-ol”: 6300 nM.
Consider “(2R)-3-((3S)-3-methyl-4-{[5-(4-trifluoromethylphenyl)isoxazol-3-yl]methyl}-piperazinyl)-1-(2-methylbenzothiazol-5-yloxy)propan-2-ol”, for which the IC50 was 250 nM.
Regarding “(2R)-3-[(2S)-2-methyl-4-({5-[2-chlorophenyl]isoxazol-3-yl}methyl)piperazinyl]-1-(2-methylbenzothiazol-5-yloxy)propan-2-ol”, the IC50 amounted to 600 nM.
Then “(2R)-1-(4-{[3-(2-chlorophenyl)(1,2,4-oxadiazol-5-yl)]methyl}piperazinyl)-3-(2-methylbenzothiazol-5-yloxy)propan-2-ol”, with 1340 nM; and “(2R)-3-{(3S)-3-methyl-4-[(5-(4-chlorophenyl)isoxazol-3-yl)methyl]piperazinyl}-1-(2-methylbenzothiazol-5-yloxy)propan-2-ol”, with 330 nM; and “(2R)-1-[(2S)-4-({5-[4-(tert-butyl)phenyl](1,3,4-oxadiazol-2-yl)}methyl)-2-methylpiperazinyl]-3-(2-methylbenzothiazol-5-yloxy)propan-2-ol”, with 390 nM.
Then `Cc1nc2cc(OC[C@H](O)CN3CCN(Cc4nnc(-c5ccc(C(F)(F)F)cc5)o4)C[C@@H]3C)ccc2s1` [(2R)-1-[(2S)-2-methyl-4-({5-[4-(trifluoromethyl)phenyl](1,3,4-oxadiazol-2-yl)}methyl)piperazinyl]-3-(2-methylbenzothiazol-5-yloxy)propan-2-ol], with 530 nM; and “(2R)-1-[(3S)-3-methyl-4-({5-[4-(trifluoromethyl)phenyl](1,2,4-oxadiazol-3-yl)}methyl)piperazinyl]-3-(2-methylbenzothiazol-5-yloxy)propan-2-ol”, with 4700 nM.
Turning to “(2R)-3-(2-methylbenzothiazol-5-yloxy)-1-(4-{[5-(4-methylphenyl)(1,3,4-oxadiazol-2-yl)]methyl}piperazinyl)propan-2-ol”, the IC50 amounted to 10700 nM.
The same measure for “(2R)-3-(2-methylbenzothiazol-5-yloxy)-1-(4-{[3-(2-methylphenyl)(1,2,4-oxadiazol-5-yl)]methyl}piperazinyl)propan-2-ol”: 230 nM; for “(2R)-1-((2S)-2-methyl-4-{[5-(4-phenylphenyl)(1,3,4-oxadiazol-2-yl)]methyl}piperazinyl)-3-(2-methylbenzothiazol-5-yloxy)propan-2-ol”: 1180 nM; for “(2R)-1-{(2S)-2-methyl-4-[(5-phenyl(1,3,4-oxadiazol-2-yl))methyl]piperazinyl}-3-(2-methylbenzothiazol-5-yloxy)propan-2-ol”: 1570 nM.
